# In ChEMBL document CHEMBL1201862, “PubChem BioAssay data set” (2004):
# Activity calls are given as the source filed them.
# Key:
# [1] = biological target: Peroxisome proliferator-activated receptor gamma/Nuclear receptor coactivator 1 (Homo sapiens, UniProt P37231); assay: TR-FRET dose response biochemical High Throughput Screening assay for agonists of the steroid receptor coactivator 1 (SRC-1) recruitment by the peroxisome proliferator-activated receptor gamma (PPAR gamma): non-selective agonists. [Related pubchem assays (depositor defined):AID1300, AID1808, AID504735, AID631]; type: protein assay
# [2] = biological target: Peroxisome proliferator-activated receptor gamma/Nuclear receptor coactivator 3 (Homo sapiens, UniProt P37231); assay: TR-FRET dose response biochemical High Throughput Screening assay for agonists of the steroid receptor coactivator 3 (SRC-3) recruitment by the peroxisome proliferator-activated receptor gamma (PPAR gamma): non-selective agonists. [Related pubchem assays: 1301 (Confirmation screen.), 1048 (Primary screen.)]; type: functional
# [3] = biological target: Peroxisome proliferator-activated receptor gamma/Nuclear receptor coactivator 2 (Homo sapiens, UniProt P37231); assay: TR-FRET dose response biochemical High Throughput Screening assay for agonists of the steroid receptor coactivator 2 (SRC-2) recruitment by the peroxisome proliferator-activated receptor gamma (PPAR gamma): non-selective agonists. [Related pubchem assays: 1297, 1032 ]; type: functional
# Cytochrome P450 3A4 = Cytochrome P450 3A4 (Homo sapiens, UniProt P08684);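 also: CYP3A4 tested as one member of a cytochrome P450 panel screen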
# [4] = inhibitors of intracellular T. cruzi replication, confirmation, NIH3T3 host cells, beta-gal luminescence (AID 2044); type: functional, cell-based;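 also: intracellular parasites grown in NIH/3T3 mouse fibroblasts as host cells; luminescent beta-galactosidase reporter signal from transgenic T. cruzi replicating inside host cells; inhibitors lower the luminescence signal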
# [5] = cytotoxicity toward NIH3T3 fibroblasts, dose response, counter-screen, cell-based, ATP luminescence, mouse fibroblasts (AID 2010); type: functional;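 also: cells exposed to compound for about 90 hours before reading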
# [6] = Luminescence Cell-Based Dose Response HTS to Identify Activators of Luciferase Translation or Activity in H4 […] Cells. [Related pubchem assays: 1829 (Project Summary), 1814 (Primary HTS)]; type: functional
# H4 = assay: Luminescence Cell-Based Dose Response HTS to Identify Activators of 5'UTR Stem-Loop Driven Prion Protein mRNA Translation in H4 Neuroglioblastoma Cells. [Related pubchem assays: 1829 (Project Summary), 1814 (Primary HTS)]; type: functional; conditions: Homo sapiens
# [7] = THP-1 cell cytotoxicity, dose response, cytotoxicity control for non-replicating M. tuberculosis project (AID 489025); type: functional
# [8] = Luminescence Cell-Based Dose Retest to Confirm Inhibitors of Cancer Stem Cells. [Related pubchem assays (depositor defined):AID2717, AID2721]; type: functional; conditions: Homo sapiens
# [9] = biological target: T1, Microphthalmia-associated transcription factor (Homo sapiens, UniProt O75030); assay: TRPM1 promoter luciferase signal decrease, dose response, MITF inhibitor project, cell-based, SK-MEL-5, cherry-picked, set 3 (AID 493073); type: functional
# T1 sequence (O75030 whole entry): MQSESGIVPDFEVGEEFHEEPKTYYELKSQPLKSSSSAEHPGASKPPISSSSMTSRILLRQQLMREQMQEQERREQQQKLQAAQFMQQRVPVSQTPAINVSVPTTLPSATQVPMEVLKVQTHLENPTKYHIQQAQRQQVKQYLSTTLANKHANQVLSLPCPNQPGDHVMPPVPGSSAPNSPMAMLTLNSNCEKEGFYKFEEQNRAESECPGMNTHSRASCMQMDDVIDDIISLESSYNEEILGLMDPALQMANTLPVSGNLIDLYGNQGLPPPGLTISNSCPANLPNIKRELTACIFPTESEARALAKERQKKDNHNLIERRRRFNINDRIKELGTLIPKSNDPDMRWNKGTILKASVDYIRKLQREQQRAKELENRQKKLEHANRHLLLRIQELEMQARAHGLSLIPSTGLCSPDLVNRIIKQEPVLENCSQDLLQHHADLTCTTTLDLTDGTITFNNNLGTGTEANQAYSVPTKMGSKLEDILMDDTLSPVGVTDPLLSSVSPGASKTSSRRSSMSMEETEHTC
# H9c2 = assay: cells; type: functional, cell-based; conditions: Rattus norvegicus, H9c2, Myocardium;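 also: confirmatory concentration-response retest of ultra-high-throughput screening hits for modulation of myocardial damage; cell death induced by hydrogen peroxide oxidative stress; compound pretreatment for 60 min then peroxide exposure for 2 h; potency is for protecting the cells against peroxide damage rather than for killing them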
# Cytochrome P450 2C9 = Cytochrome P450 2C9 (Homo sapiens, UniProt P11712)
# [10] = biological target: Eukaryotic translation initiation factor 4E (Mus musculus, UniProt P63073); assay: eIF4E–eIF4G protein interaction inhibitors, dose response, biochemical, TR-FRET (AID 855); type: functional;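 also: potency for disrupting eIF4E binding to eIF4GI seen as loss of FRET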
# [11] = biological target: T2, Replicative DNA helicase DnaB (Mycobacterium tuberculosis, UniProt P9WMR3); assay: DnaB intein splicing inhibitors, dose response, biochemical, cell-free fluorescence (AID 449749); type: functional
# T2 sequence (P9WMR3 whole entry): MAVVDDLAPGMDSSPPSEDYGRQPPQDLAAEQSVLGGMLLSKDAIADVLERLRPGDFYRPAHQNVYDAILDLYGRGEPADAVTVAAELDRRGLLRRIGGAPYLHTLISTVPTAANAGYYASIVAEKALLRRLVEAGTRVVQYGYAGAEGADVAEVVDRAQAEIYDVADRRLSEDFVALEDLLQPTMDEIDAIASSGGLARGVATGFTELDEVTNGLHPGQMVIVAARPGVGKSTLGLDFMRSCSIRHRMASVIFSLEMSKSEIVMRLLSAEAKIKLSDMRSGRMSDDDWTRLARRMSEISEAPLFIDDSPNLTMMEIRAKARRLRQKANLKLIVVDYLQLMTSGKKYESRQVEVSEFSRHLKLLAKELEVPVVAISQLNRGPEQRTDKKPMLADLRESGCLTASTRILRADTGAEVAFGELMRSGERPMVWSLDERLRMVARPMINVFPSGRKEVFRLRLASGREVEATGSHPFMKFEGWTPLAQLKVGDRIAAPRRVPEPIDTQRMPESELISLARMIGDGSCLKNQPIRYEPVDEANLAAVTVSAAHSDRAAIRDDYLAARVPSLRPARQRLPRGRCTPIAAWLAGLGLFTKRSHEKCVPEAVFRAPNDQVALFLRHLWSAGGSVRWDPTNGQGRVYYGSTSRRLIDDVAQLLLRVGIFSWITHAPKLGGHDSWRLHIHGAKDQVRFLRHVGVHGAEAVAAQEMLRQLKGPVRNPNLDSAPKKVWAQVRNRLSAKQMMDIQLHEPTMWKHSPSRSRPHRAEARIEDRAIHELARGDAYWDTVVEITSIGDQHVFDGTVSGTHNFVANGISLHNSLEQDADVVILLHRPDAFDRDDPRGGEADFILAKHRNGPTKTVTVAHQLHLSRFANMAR
# Protein RecA = biological target: T3, Protein RecA (Mycobacterium tuberculosis, UniProt P9WHJ3); assay: Fluorescence Cell-Free Homogeneous Dose Retest to Identify Inhibitors of RecA-Intein Splicing Activity. [Related pubchem assays (depositor defined):AID2097, AID2223, AID489010, AID492950]; type: functional
# T3 sequence (P9WHJ3 whole entry): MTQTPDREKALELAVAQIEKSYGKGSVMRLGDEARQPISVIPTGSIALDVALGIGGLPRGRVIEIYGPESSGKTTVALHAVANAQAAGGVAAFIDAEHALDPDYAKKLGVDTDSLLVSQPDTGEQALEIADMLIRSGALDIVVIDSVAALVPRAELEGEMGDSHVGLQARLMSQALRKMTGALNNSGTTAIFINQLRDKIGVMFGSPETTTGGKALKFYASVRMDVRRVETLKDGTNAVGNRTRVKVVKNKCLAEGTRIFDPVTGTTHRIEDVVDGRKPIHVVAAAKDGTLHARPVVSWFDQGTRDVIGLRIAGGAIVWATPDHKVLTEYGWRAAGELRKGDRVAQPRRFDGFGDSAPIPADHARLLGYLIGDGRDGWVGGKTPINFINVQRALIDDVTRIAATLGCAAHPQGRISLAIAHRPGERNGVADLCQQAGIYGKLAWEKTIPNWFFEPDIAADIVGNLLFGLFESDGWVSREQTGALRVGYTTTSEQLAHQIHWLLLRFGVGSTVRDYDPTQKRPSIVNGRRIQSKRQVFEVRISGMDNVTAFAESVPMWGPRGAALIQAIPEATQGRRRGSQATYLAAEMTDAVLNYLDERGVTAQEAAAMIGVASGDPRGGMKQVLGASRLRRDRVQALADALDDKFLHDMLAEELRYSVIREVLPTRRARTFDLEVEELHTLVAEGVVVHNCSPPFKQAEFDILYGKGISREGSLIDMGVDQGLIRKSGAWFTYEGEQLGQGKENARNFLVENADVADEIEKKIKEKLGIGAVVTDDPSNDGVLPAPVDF
# Fatty acid synthase [12] = biological target: T4, Fatty acid synthase (Homo sapiens, UniProt P49327); assay: FAS thioesterase domain inhibitors, dose response, biochemical, endpoint fluorescence intensity, uHTS hits (AID 624327); type: functional;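 also: fluorescence from hydrolysis of an O-methyl fluorescein acyl ester substrate by the enzyme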
# Fatty acid synthase [13] = biological target: T4, Fatty acid synthase; assay: FAS thioesterase domain inhibitors, dose response, biochemical, kinetic fluorescence intensity (AID 624326); type: functional;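 also: rate of fluorescence rise from hydrolysis of a fluorogenic O-methyl fluorescein ester substrate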
# HeLa = assay: HeLa cell cytotoxicity, dose response, cytotoxicity control for MITF activator project, CellTiter-Glo luminescence, cherry-pick samples (AID 540259); type: functional, cell-based; conditions: Homo sapiens
# HEK293 = assay: inhibitors of LMP1-driven NF-kB reporter, dose response, cell-based, HEK293, luciferase, cherry-pick (AID 588343); type: functional; conditions: Homo sapiens
# [14] = biological target: T5, Rac GTPase-activating protein 1 (Homo sapiens, UniProt Q9H0H5); assay: MgcRacGAP GTPase-activating activity inhibitors, confirmation, biochemical, ADP Hunter fluorescence, primary and confirmatory (AID 624330); type: functional
# T5 sequence (Q9H0H5 whole entry): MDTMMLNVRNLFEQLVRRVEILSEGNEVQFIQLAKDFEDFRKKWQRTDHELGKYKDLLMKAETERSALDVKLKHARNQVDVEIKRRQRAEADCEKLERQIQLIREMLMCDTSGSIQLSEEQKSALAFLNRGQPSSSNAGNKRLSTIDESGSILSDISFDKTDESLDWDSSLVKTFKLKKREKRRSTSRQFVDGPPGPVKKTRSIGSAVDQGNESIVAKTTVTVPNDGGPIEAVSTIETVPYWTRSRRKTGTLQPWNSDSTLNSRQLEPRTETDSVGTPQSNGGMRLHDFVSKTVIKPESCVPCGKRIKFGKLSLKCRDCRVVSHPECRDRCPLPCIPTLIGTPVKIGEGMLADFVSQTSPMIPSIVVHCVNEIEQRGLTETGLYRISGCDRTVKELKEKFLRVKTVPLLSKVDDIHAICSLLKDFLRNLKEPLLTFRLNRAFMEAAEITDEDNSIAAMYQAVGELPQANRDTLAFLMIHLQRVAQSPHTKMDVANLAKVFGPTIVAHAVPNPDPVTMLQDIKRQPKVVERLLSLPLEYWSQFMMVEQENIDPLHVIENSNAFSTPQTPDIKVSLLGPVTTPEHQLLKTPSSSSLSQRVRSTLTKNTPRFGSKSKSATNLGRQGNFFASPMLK
# [15] = Luminescence Cell-Based Dose Confirmation HTS to Identify Activators of 5'UTR Stem-Loop Driven Alpha-Synuclein mRNA Translation in H4 Neuroglioblastoma Cells. [Related pubchem assays: 1829 (Project Summary), 1814 (Primary HTS)]; type: functional
# [16] = biological target: Glucose-6-phosphate 1-dehydrogenase (Homo sapiens, UniProt P11413); assay: human G6PD enzyme inhibitors, dose response, selectivity assay for P. falciparum G6PD inhibitor project, biochemical, fluorescence (AID 504792); type: functional
# Chain of Cytochrome P450 3A4 (P08684 whole entry): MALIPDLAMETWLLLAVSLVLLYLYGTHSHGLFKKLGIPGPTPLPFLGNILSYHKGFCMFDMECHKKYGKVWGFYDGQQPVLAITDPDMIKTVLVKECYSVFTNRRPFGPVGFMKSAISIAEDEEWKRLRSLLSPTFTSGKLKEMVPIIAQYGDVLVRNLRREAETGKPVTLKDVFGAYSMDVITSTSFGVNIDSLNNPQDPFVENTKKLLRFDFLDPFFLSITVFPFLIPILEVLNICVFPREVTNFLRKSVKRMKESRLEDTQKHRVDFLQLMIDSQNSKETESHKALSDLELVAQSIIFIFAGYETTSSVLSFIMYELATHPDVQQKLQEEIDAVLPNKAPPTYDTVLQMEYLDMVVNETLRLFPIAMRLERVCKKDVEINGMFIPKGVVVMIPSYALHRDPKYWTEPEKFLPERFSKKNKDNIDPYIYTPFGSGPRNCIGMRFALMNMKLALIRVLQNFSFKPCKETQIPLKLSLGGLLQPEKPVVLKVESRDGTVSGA
# Chain of Eukaryotic translation initiation factor 4E (P63073 whole entry): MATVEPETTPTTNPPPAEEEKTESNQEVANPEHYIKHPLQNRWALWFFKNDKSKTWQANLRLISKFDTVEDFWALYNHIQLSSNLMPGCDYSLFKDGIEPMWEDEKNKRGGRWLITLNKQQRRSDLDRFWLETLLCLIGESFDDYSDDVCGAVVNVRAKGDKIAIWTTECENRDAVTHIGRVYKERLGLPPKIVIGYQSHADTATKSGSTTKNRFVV
# Chain of Peroxisome proliferator-activated receptor gamma/Nuclear receptor coactivator 3 (P37231 whole entry): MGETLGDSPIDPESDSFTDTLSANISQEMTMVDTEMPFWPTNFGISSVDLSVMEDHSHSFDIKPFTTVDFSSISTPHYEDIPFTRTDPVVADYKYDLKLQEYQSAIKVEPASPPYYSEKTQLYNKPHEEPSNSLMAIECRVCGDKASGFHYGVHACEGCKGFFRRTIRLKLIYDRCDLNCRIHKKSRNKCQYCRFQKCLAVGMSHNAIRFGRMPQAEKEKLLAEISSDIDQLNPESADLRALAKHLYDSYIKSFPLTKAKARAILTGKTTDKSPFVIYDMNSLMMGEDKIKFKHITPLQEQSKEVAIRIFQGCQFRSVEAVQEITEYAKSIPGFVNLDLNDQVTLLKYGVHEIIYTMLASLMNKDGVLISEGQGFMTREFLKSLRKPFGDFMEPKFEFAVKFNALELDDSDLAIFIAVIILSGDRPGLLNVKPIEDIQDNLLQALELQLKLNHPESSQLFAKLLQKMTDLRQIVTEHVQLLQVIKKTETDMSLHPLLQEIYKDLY
# Chain of Peroxisome proliferator-activated receptor gamma/Nuclear receptor coactivator 3 (Q9Y6Q9 whole entry, further chain): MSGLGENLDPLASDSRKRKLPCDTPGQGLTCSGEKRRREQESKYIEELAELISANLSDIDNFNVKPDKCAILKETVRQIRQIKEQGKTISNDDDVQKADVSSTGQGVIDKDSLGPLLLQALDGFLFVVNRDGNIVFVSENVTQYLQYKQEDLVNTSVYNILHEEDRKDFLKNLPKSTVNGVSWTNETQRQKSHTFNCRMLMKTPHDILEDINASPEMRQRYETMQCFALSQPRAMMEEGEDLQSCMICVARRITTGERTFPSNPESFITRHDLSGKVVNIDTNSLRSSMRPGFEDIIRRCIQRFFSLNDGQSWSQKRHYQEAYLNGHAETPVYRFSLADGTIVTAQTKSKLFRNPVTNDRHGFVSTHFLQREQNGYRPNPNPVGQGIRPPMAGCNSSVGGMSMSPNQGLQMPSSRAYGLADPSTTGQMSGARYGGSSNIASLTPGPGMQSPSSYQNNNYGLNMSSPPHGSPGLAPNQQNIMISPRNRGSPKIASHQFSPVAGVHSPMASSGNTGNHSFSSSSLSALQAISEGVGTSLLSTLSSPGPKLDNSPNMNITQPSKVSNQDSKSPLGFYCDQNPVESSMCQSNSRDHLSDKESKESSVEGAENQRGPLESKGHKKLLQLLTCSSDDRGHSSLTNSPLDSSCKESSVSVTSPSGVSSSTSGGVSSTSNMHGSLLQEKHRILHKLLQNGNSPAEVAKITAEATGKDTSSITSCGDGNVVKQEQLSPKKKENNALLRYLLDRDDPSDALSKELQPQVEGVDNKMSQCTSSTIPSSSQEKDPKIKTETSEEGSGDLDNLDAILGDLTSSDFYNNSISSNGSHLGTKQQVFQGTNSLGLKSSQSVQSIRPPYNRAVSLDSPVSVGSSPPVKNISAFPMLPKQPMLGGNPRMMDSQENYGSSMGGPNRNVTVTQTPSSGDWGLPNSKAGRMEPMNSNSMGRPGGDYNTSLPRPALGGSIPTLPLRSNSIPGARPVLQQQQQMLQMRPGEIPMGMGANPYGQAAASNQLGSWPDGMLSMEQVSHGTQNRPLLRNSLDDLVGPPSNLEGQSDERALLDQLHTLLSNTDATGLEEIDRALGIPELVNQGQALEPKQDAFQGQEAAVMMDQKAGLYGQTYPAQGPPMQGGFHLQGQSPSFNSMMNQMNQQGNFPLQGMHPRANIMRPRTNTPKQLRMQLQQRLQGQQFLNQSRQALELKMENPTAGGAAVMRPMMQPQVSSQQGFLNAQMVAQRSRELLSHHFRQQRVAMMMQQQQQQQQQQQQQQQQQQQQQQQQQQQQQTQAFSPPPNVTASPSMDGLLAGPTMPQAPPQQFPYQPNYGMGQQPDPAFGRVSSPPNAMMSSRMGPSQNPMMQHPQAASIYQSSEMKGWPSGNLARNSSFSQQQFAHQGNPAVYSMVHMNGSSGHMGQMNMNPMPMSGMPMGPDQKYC
# Chain of Peroxisome proliferator-activated receptor gamma/Nuclear receptor coactivator 1 (P37231 whole entry): as the sequence (P37231 whole entry) above
# Chain of Peroxisome proliferator-activated receptor gamma/Nuclear receptor coactivator 1 (Q15788 whole entry, further chain): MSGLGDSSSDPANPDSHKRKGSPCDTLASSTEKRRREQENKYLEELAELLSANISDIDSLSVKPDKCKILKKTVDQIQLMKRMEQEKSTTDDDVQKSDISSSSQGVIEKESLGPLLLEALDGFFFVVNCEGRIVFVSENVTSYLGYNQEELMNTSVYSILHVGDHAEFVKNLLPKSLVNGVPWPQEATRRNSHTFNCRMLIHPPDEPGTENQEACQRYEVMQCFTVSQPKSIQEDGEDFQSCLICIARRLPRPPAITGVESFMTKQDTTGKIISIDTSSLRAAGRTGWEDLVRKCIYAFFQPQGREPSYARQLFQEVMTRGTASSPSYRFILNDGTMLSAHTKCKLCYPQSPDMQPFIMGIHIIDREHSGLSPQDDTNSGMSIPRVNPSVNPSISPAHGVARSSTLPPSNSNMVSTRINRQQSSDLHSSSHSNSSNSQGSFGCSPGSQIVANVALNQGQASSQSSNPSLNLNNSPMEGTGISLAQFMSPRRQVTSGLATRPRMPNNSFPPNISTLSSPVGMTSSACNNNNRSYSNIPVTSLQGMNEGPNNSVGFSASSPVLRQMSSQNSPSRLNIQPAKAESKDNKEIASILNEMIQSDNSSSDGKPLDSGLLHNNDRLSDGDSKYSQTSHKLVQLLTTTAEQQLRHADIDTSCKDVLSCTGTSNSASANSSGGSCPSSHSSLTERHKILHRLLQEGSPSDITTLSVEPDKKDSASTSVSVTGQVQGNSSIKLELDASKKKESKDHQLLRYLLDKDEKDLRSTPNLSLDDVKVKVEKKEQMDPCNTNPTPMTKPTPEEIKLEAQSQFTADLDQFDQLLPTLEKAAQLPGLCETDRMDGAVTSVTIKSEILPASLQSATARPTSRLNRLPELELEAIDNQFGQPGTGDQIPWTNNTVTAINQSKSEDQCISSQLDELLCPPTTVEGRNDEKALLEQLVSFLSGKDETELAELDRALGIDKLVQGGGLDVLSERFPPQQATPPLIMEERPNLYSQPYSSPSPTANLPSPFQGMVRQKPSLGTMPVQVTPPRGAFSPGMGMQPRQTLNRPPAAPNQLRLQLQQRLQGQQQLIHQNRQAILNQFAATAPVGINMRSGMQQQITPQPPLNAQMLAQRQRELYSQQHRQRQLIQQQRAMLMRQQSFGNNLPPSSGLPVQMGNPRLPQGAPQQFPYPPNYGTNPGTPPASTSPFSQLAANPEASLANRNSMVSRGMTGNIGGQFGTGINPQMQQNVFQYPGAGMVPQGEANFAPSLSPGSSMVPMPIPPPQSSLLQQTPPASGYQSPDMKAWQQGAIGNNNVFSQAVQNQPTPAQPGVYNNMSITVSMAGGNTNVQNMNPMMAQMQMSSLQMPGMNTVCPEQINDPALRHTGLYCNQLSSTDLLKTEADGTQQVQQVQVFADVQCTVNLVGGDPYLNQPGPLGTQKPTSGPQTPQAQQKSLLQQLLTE
compound,measurement,setting,value
COc1cc2c(cc1OC)C1=NC(=O)CN1C(SCc1ccccc1C)=N2,EC50,[1],> 79.4 µM (inactive)
same,EC50,[2],> 79.4 µM (not active)
same,EC50,[3],82.7 µM (not active)
Cc1cc(Cl)ccc1NC(=O)CN1CCC(C(O)(c2ccccc2)c2ccccc2)CC1,AC50,Cytochrome P450 3A4,inconclusive
Cl.OCCN1CCN(CCOc2cccc(Cl)c2)CC1,EC50,[4],0.413 µM (active)
same,EC50,[5],> 60 µM (inconclusive)
same,AC50,Cytochrome P450 3A4,inconclusive
O=C(CCC1CCCC1)Nc1ccc(Br)cn1,EC50,[6],0.805 µM (active)
same,EC50,H4,> 120 µM (not active)
same,CC50,[7],> 40 µM (active)
CCOC(=O)c1c(NC(=O)C(c2ccccc2)c2ccccc2)sc2c1C1CCN2CC1.Cl,EC50,[4],1.86 µM (active)
same,EC50,[5],> 60 µM (not active)
same,AC50,[8],1.09 µM (active)
same,AC50,Cytochrome P450 3A4,inconclusive
Cc1ccc(-c2nnc(O)c3ccccc23)cc1S(=O)(=O)NCC1CCCO1 (stereo unspecified),AC50,[9],53.2 µM (active)
same,IC50,H9c2,15.3 µM (active)
O=c1c2c(-c3cccs3)csc2[nH]c(=S)n1-c1ccccc1,EC50,[1],12.8 µM (inactive)
same,EC50,[2],> 79.4 µM (not active)
same,EC50,[3],11.6 µM (not active)
same,AC50,Cytochrome P450 2C9,8.91 µM (inconclusive)
Clc1ccc(OCCCn2cncn2)cc1Cl,IC50,[10],> 64 µM (inactive)
CC(=O)N(C1CC(C)C(C#N)(C#N)C1(C#N)C#N)N(C)C (stereo unspecified),AC50,[9],9.24 µM (active)
same,AC50,[11],1.68 µM (active)
same,EC50,Protein RecA,3.17 µM (active)
same,IC50,Fatty acid synthase [12],8.68 µM (active)
same,IC50,Fatty acid synthase [13],6.1 µM (active)
Oc1cc2c(cc1C(c1ccc(Br)cc1)N1CCCC1)OCO2 (stereo unspecified),IC50,[10],50 µM (inactive)
Cc1cc(C(=O)OCC(=O)c2ccc(Br)s2)c(C)o1,EC50,[1],> 79.4 µM (inactive)
same,EC50,[2],> 79.4 µM (not active)
same,EC50,[3],14.6 µM (not active)
CC(C)(C)C(=O)c1cnc(Nc2ccccc2Cl)s1,AC50,HeLa,121 µM (active)
CC1CCN(C(=O)/C(=C\c2cccs2)NC(=O)c2ccccc2)CC1,AC50,HEK293,> 350 µM (inactive)
N#Cc1cc(C#N)c(N2CCN(c3ccccn3)CC2)nc1N,AC50,HeLa,31.7 µM (active)
O=C1CCCc2ccccc2N1Cc1cccc(Cl)c1,AC50,Cytochrome P450 3A4,inconclusive
COc1ccccc1CN1CCN(C(=O)c2ccncc2)CC1,IC50,[10],> 64 µM (inactive)
same,IC50,[14],120 µM (active)
CC(=O)c1sc(N/N=C/c2cccc(O)c2)nc1C,EC50,[15],6.61 µM (active)
same,EC50,[6],8.4 µM (active)
same,EC50,H4,23.2 µM (active)
same,AC50,HeLa,77.2 µM (active)
Cc1cc(SCC(=O)N/N=C/c2ccco2)nc2ccccc12,IC50,[16],57.4 µM (inactive)
